The data set is described as follows: activity coefficient (dimensionless); of the first substance listed, at infinite dilution; xn = mol fraction of the nth substance listed. Conditions: 101 kPa, Liquid, Chromatography, x1 = 0.

Structures are written as SMILES. Numbers after ± are expanded uncertainties.

As for `CCC(C)CC(C)C` (stereo not given) [2,4-dimethylhexane] + CCCCCCCCCCCCCCCCCCC(CCCCCCCCCCCCCCCCCC)CCCCC(CCCCCCCCCCCCCCCCCC)CCCCCCCCCCCCCCCCCC, the activity coefficient (373.15 K) amounted to 0.394 ± 0.034; the activity coefficient (388.15 K) came to 0.396 ± 0.034; the activity coefficient (403.15 K) amounted to 0.396 ± 0.034; the activity coefficient (418.15 K) came to 0.398 ± 0.034; the activity coefficient (433.15 K) came out at 0.405 ± 0.034.
Take `CC(C)CC(C)C` [2,4-dimethylpentane] + CCCCCCCCCCCCCCCCCCC(CCCCCCCCCCCCCCCCCC)CCCCC(CCCCCCCCCCCCCCCCCC)CCCCCCCCCCCCCCCCCC: the activity coefficient amounted to 0.391 ± 0.034 (373.15 K); 0.392 ± 0.034 (388.15 K); 0.394 ± 0.034 (403.15 K); 0.396 ± 0.034 (418.15 K); 0.4 ± 0.034 (433.15 K).
For `CC#CCCC` [2-hexyne] + CCCCCCCCCCCCCCCCCCC(CCCCCCCCCCCCCCCCCC)CCCCC(CCCCCCCCCCCCCCCCCC)CCCCCCCCCCCCCCCCCC, in that order: 0.378 ± 0.034, 0.377 ± 0.034, 0.377 ± 0.034, 0.378 ± 0.034 and 0.38 ± 0.034.
Regarding `CCC(C)C(C)CC` (stereo not given) [3,4-dimethylhexane] + CCCCCCCCCCCCCCCCCCC(CCCCCCCCCCCCCCCCCC)CCCCC(CCCCCCCCCCCCCCCCCC)CCCCCCCCCCCCCCCCCC, the activity coefficient is, setting by setting: (373.15 K) 0.353 ± 0.035; (388.15 K) 0.357 ± 0.035; (403.15 K) 0.36 ± 0.035; (418.15 K) 0.362 ± 0.035; (433.15 K) 0.366 ± 0.035.
As for `CCC#CCC` [3-hexyne] + CCCCCCCCCCCCCCCCCCC(CCCCCCCCCCCCCCCCCC)CCCCC(CCCCCCCCCCCCCCCCCC)CCCCCCCCCCCCCCCCCC, the activity coefficient is, setting by setting: (373.15 K) 0.404 ± 0.034; (388.15 K) 0.406 ± 0.034; (403.15 K) 0.406 ± 0.034; (418.15 K) 0.417 ± 0.034; (433.15 K) 0.419 ± 0.034.
As for `CCCC#CCCC` [4-octyne] + CCCCCCCCCCCCCCCCCCC(CCCCCCCCCCCCCCCCCC)CCCCC(CCCCCCCCCCCCCCCCCC)CCCCCCCCCCCCCCCCCC, the activity coefficient (373.15 K) is 0.436 ± 0.033; the activity coefficient (388.15 K) stood at 0.429 ± 0.034; the activity coefficient (403.15 K) amounted to 0.424 ± 0.034; the activity coefficient (418.15 K) amounted to 0.421 ± 0.034; the activity coefficient (433.15 K) amounted to 0.416 ± 0.034.
For `C1C2CC3CC1CC(C2)C3` [adamantane] + CCCCCCCCCCCCCCCCCCC(CCCCCCCCCCCCCCCCCC)CCCCC(CCCCCCCCCCCCCCCCCC)CCCCCCCCCCCCCCCCCC the same measures were 0.337 ± 0.035, 0.339 ± 0.035, 0.337 ± 0.035, 0.342 ± 0.035 and 0.343 ± 0.035.
For `c1ccccc1` [benzene] + CCCCCCCCCCCCCCCCCCC(CCCCCCCCCCCCCCCCCC)CCCCC(CCCCCCCCCCCCCCCCCC)CCCCCCCCCCCCCCCCCC, the activity coefficient (373.15 K) was found to be 0.269 ± 0.036; the activity coefficient (388.15 K) worked out at 0.266 ± 0.036; the activity coefficient (403.15 K) was 0.263 ± 0.036; the activity coefficient (418.15 K) was 0.26 ± 0.036; the activity coefficient (433.15 K) stood at 0.258 ± 0.036.
As for `CCCCc1ccccc1` [butylbenzene] + CCCCCCCCCCCCCCCCCCC(CCCCCCCCCCCCCCCCCC)CCCCC(CCCCCCCCCCCCCCCCCC)CCCCCCCCCCCCCCCCCC, the activity coefficient (373.15 K) was found to be 0.357 ± 0.035; the activity coefficient (388.15 K) was found to be 0.362 ± 0.035; the activity coefficient (403.15 K) is 0.359 ± 0.035; the activity coefficient (418.15 K) came out at 0.358 ± 0.035; the activity coefficient (433.15 K) came to 0.354 ± 0.035.
With `C[C@@H]1CCCC[C@@H]1C` [cis-1,2-dimethylcyclohexane] + CCCCCCCCCCCCCCCCCCC(CCCCCCCCCCCCCCCCCC)CCCCC(CCCCCCCCCCCCCCCCCC)CCCCCCCCCCCCCCCCCC, the activity coefficient came out at 0.271 ± 0.036 (373.15 K); 0.277 ± 0.036 (388.15 K); 0.279 ± 0.036 (403.15 K); 0.28 ± 0.036 (418.15 K); 0.285 ± 0.036 (433.15 K).
As for `C[C@H]1CC[C@@H](C)CC1` [cis-1,4-dimethylcyclohexane] + CCCCCCCCCCCCCCCCCCC(CCCCCCCCCCCCCCCCCC)CCCCC(CCCCCCCCCCCCCCCCCC)CCCCCCCCCCCCCCCCCC, the activity coefficient by setting is: (373.15 K) 0.287 ± 0.036; (388.15 K) 0.294 ± 0.036; (403.15 K) 0.296 ± 0.036; (418.15 K) 0.296 ± 0.036; (433.15 K) 0.3 ± 0.036.
Turning to `C1CC[C@H]2CCCC[C@H]2C1` [cis-decahydronaphthalene] + CCCCCCCCCCCCCCCCCCC(CCCCCCCCCCCCCCCCCC)CCCCC(CCCCCCCCCCCCCCCCCC)CCCCCCCCCCCCCCCCCC, the activity coefficient is, setting by setting: (373.15 K) 0.268 ± 0.036; (388.15 K) 0.278 ± 0.036; (403.15 K) 0.28 ± 0.036; (418.15 K) 0.275 ± 0.036; (433.15 K) 0.279 ± 0.036.
With `C1CCCCCCCCC1` [cyclodecane] + CCCCCCCCCCCCCCCCCCC(CCCCCCCCCCCCCCCCCC)CCCCC(CCCCCCCCCCCCCCCCCC)CCCCCCCCCCCCCCCCCC, the activity coefficient was found to be 0.269 ± 0.036 (373.15 K); 0.281 ± 0.036 (388.15 K); 0.283 ± 0.036 (403.15 K); 0.287 ± 0.036 (418.15 K); 0.288 ± 0.036 (433.15 K).
For the compound `C1CCCCCC1` [cycloheptane] + CCCCCCCCCCCCCCCCCCC(CCCCCCCCCCCCCCCCCC)CCCCC(CCCCCCCCCCCCCCCCCC)CCCCCCCCCCCCCCCCCC, the activity coefficient turned out to be 0.252 ± 0.036 (373.15 K); 0.257 ± 0.036 (388.15 K); 0.256 ± 0.036 (403.15 K); 0.253 ± 0.036 (418.15 K); 0.255 ± 0.036 (433.15 K).
`C1CCCCC1` [cyclohexane] + CCCCCCCCCCCCCCCCCCC(CCCCCCCCCCCCCCCCCC)CCCCC(CCCCCCCCCCCCCCCCCC)CCCCCCCCCCCCCCCCCC: the activity coefficient (373.15 K) was found to be 0.25 ± 0.036; the activity coefficient (388.15 K) is 0.251 ± 0.036; the activity coefficient (403.15 K) worked out at 0.246 ± 0.036; the activity coefficient (418.15 K) was found to be 0.245 ± 0.036; the activity coefficient (433.15 K) is 0.247 ± 0.036.
For `C1=CCCCC1` [cyclohexene] + CCCCCCCCCCCCCCCCCCC(CCCCCCCCCCCCCCCCCC)CCCCC(CCCCCCCCCCCCCCCCCC)CCCCCCCCCCCCCCCCCC the same measures were 0.239 ± 0.036, 0.244 ± 0.036, 0.243 ± 0.036, 0.241 ± 0.036 and 0.243 ± 0.036.
With `C1CCCCCCC1` [cyclooctane] + CCCCCCCCCCCCCCCCCCC(CCCCCCCCCCCCCCCCCC)CCCCC(CCCCCCCCCCCCCCCCCC)CCCCCCCCCCCCCCCCCC, the activity coefficient was determined as 0.258 ± 0.036 (373.15 K); 0.264 ± 0.036 (388.15 K); 0.265 ± 0.036 (403.15 K); 0.262 ± 0.036 (418.15 K); 0.264 ± 0.036 (433.15 K).
For `CCCCCCCCCC` [decane] + CCCCCCCCCCCCCCCCCCC(CCCCCCCCCCCCCCCCCC)CCCCC(CCCCCCCCCCCCCCCCCC)CCCCCCCCCCCCCCCCCC, the activity coefficient reads like this: (373.15 K) 0.418 ± 0.034; (388.15 K) 0.42 ± 0.034; (403.15 K) 0.421 ± 0.034; (418.15 K) 0.423 ± 0.034; (433.15 K) 0.425 ± 0.034.

Source of the values: the NIST ThermoML archive (doi:10.1016/j.fluid.2006.07.015).
